How the values were obtained:
[1] = system: normal primary NK cells, pool 1 (3 donors) (IL-2 2.5 ng/mL); experiment: percent inhibition of viability; higher = more inhibition; conditions: 72 h
[2] = system: YT (IL-2 2.5 ng/mL); experiment: as above; conditions: 72 h
[3] = system: NK-92 (IL-2 2.5 ng/mL); experiment: as above; conditions: 72 h
[4] = system: KHYG-1 (IL-2 2.5 ng/mL); experiment: as above; conditions: 72 h
[5] = system: SNK-6 (IL-2 2.5 ng/mL); experiment: as above; conditions: 72 h
[6] = system: NKL (IL-2 2.5 ng/mL); experiment: as above; conditions: 72 h
[7] = system: DERL-7 (IL-2 2.5 ng/mL); experiment: as above; conditions: 72 h
[8] = system: IMC-1 (IL-2 20 ng/mL); experiment: as above; conditions: 72 h
[9] = system: normal primary NK cells, pool 3 (3 donors) (IL-2 2.5 ng/mL); experiment: as above; conditions: 72 h
[10] = system: NK-YS (IL-2 2.5 ng/mL); experiment: as above; conditions: 72 h
[11] = system: normal primary NK cells, pool 2 (3 donors) (IL-2 2.5 ng/mL); experiment: as above; conditions: 72 h
[12] = system: normal primary NK cells, pool 1 (3 donors), resting (IL-2 0 ng/mL); experiment: as above; conditions: 72 h
[13] = system: KAI3 (IL-2 2.5 ng/mL); experiment: as above; conditions: 72 h
[14] = system: normal primary NK cells, pool 1 (3 donors) (IL-2 2.5 ng/mL); experiment: drug sensitivity score (DSS) (DSS units); higher = more sensitive; extreme values may be limits of the assay; conditions: 72 h
[15] = system: YT (IL-2 2.5 ng/mL); experiment: as above; conditions: 72 h
[16] = system: NK-92 (IL-2 2.5 ng/mL); experiment: as above; conditions: 72 h
[17] = system: KHYG-1 (IL-2 2.5 ng/mL); experiment: as above; conditions: 72 h
[18] = system: SNK-6 (IL-2 2.5 ng/mL); experiment: as above; conditions: 72 h
[19] = system: NKL (IL-2 2.5 ng/mL); experiment: as above; conditions: 72 h
[20] = system: DERL-7 (IL-2 2.5 ng/mL); experiment: as above; conditions: 72 h
[21] = system: IMC-1 (IL-2 20 ng/mL); experiment: as above; conditions: 72 h
[22] = system: normal primary NK cells, pool 3 (3 donors) (IL-2 2.5 ng/mL); experiment: as above; conditions: 72 h
[23] = system: NK-YS (IL-2 2.5 ng/mL); experiment: as above; conditions: 72 h
[24] = system: normal primary NK cells, pool 2 (3 donors) (IL-2 2.5 ng/mL); experiment: as above; conditions: 72 h
[25] = system: normal primary NK cells, pool 1 (3 donors), resting (IL-2 0 ng/mL); experiment: as above; conditions: 72 h
[26] = system: KAI3 (IL-2 2.5 ng/mL); experiment: as above; conditions: 72 h
[27] = system: normal NK cells expanded with K562-aAPC; experiment: percent inhibition of viability; higher = more inhibition; conditions: 72 h, IL-2 2.5 ng/mL
Experimental: (§1)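 Drug sensitivity and resistance testing on K562-aAPC-expanded normal NK cells: 5 concentrations (10-fold steps over a 10,000-fold range), 72 h at 37 °C, viability by CellTiter-Glo normalised to DMSO and benzethonium chloride controls; DSS from the fitted curve.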

[28] = system: normal NK cells expanded with K562-aAPC; experiment: drug sensitivity score (DSS) (DSS units); higher = more sensitive; extreme values may be limits of the assay; conditions: 72 h; IL-2 2.5 ng/mL
Experimental: as §1

C=CCc1cccc(/C=N/NC(=O)CN2CCN(Cc3ccccc3)CC2)c1O [PAC-1] (max concentration tested 10000 nM)
percent inhibition of viability [%]
Conditions | 1 nM | 10 nM | 100 nM | 1000 nM | 10000 nM
[1] | -3.78 | -2.13 | -1.5 | 3.37 | 92.1
[2] | -0.7 | -1.17 | 5.18 | 22.7 | 99
[3] | -11.7 | -11 | 17.2 | 50.3 | 103
[4] | -1.19 | -1.29 | 5.59 | 74.1 | 104
[5] | 10.2 | 3.22 | 2.33 | 48.9 | 97.7
[6] | -9.29 | 8.69 | 4.48 | 69.2 | 97.8
[7] | -1.36 | 2.12 | -2.94 | 12.2 | 80.9
[8] | -3.49 | -2.97 | 1.56 | 1.88 | 100
[9] | -13.1 | -3.83 | 0.14 | 15.8 | 96
[10] | -1.58 | -1.32 | 5.2 | 5.35 | 97.7
[11] | -14.6 | -2.22 | 5.41 | 12 | 86.3
[12] | -5.08 | -13.3 | -0.24 | -2.95 | 89.9
[13] | -5.72 | -3.85 | 4.89 | 62.6 | 96.5
[27] | -3.35 | 4.92 | 2.56 | 20.9 | 96.8

Conditions | drug sensitivity score
[14] | 5.57
[15] | 9.03
[16] | 12
[17] | 14.7
[18] | 11.3
[19] | 13.9
[20] | 6.53
[21] | 5.83
[22] | 7.93
[23] | 6.2
[24] | 6.79
[25] | 4.76
[26] | 13
[28] | 8.67

Nc1cc(C(F)(F)F)c(-c2cc(N3CCOCC3)nc(N3CCOCC3)n2)cn1 [Buparlisib] (max concentration tested 10000 nM)
percent inhibition of viability [%]
Conditions | 1 nM | 10 nM | 100 nM | 1000 nM | 10000 nM
[1] | -1.97 | -13.5 | -2.5 | 4.32 | 28.6
[2] | -0.5 | 0.16 | 7.95 | 41.5 | 100
[3] | 7.02 | -3.67 | 15.7 | 52.4 | 96.2
[4] | -1.22 | -0.26 | 7 | 57.9 | 101
[5] | 33.1 | 31.2 | 38.8 | 73.2 | 92.7
[6] | -8.01 | -1.84 | 8.57 | 69.1 | 73.8
[7] | -4.02 | 6.38 | 3.7 | 42.2 | 89.9
[8] | -4.05 | -1.36 | 2.62 | -18.8 | 99.3
[9] | -11.4 | -7.58 | 0 | 0.01 | 19.4
[10] | -0.4 | -0.39 | 9.67 | 55 | 80
[11] | -19.2 | -7.45 | 6.25 | 8.14 | 26.6
[12] | 6.15 | -7.57 | -1.1 | 2.62 | 26.9
[13] | -7.19 | -5.48 | -0.56 | 43 | 74.8
[27] | -3.33 | -1.98 | 1.34 | 25.6 | 67

Conditions | drug sensitivity score
[14] | 1.89
[15] | 10.4
[16] | 12.2
[17] | 12.6
[18] | 23.7
[19] | 14
[20] | 9.98
[21] | 4.51
[22] | 0.55
[23] | 11.7
[24] | 1.72
[25] | 1.48
[26] | 9.35
[28] | 7.15

Nc1ncn([C@H]2C[C@H](O)[C@@H](CO)O2)c(=O)n1 [Decitabine] (max concentration tested 10000 nM)
percent inhibition of viability [%]
Conditions | 1 nM | 10 nM | 100 nM | 1000 nM | 10000 nM
[1] | 8.63 | 2.5 | -2.22 | -0.78 | 30.4
[2] | 9.12 | 6.63 | 10.1 | 24.2 | 47.4
[3] | 14.1 | 7.13 | 28.5 | 42.4 | 81.5
[4] | 4.42 | 1.27 | 13.6 | 51.4 | 89.8
[5] | 3.81 | 14.8 | 64.3 | 70.1 | 78.8
[6] | 0.73 | 9.17 | 7.62 | 27.4 | 15
[7] | 0.66 | -1.23 | 21.1 | 60.8 | 92.3
[8] | 6.19 | 9.72 | 18.9 | 18.9 | 49.6
[9] | -2.52 | -0.43 | 2.61 | 5.08 | 47.6
[10] | 2.7 | 4.69 | 16.5 | 38 | 64.8
[11] | -3.35 | -1.69 | -11.7 | 3 | 32.2
[12] | 3.59 | -12.2 | 2.07 | -6.83 | 43.9
[13] | 10.1 | 26.4 | 51.8 | 58.8 | 73
[27] | 3.63 | 6.61 | 11.9 | 21.8 | 56.1

Conditions | drug sensitivity score
[14] | 1.27
[15] | 5.68
[16] | 12.6
[17] | 11.7
[18] | 23.5
[19] | 3.12
[20] | 14.1
[21] | 6.54
[22] | 3.32
[23] | 9.23
[24] | 1.92
[25] | 1.82
[26] | 21
[28] | 5.69

CC(C)[C@H]1C(=O)N[C@@H](CCCNC(=N)N)C(=O)NCC(=O)N[C@@H](CC(=O)O)C(=O)N[C@H](Cc2ccccc2)C(=O)N1C [Cilengitide] (max concentration tested 10000 nM)
percent inhibition of viability [%]
Conditions | 1 nM | 10 nM | 100 nM | 1000 nM | 10000 nM
[1] | -11.5 | -10.7 | -11.7 | -4.42 | -5.41
[2] | -3.44 | -9.37 | -2 | -8.27 | -2.28
[3] | -6.89 | -15.6 | -2.78 | -19.4 | -3.46
[4] | -4.74 | -8.58 | -8.46 | -5.89 | -5.46
[5] | 5.33 | -1.64 | -18.7 | -5.25 | -3.56
[6] | -5.73 | -8.69 | -8.49 | -3.48 | -5.17
[7] | 1.94 | -0.89 | 5.16 | -1.67 | 1.74
[8] | -4.13 | -2.67 | -2.6 | -4.07 | -10
[9] | -10.7 | -5.35 | -6.3 | -9.92 | -10.2
[10] | 3.77 | -3.77 | -3.08 | -1.52 | -1.33
[11] | -8.85 | -4.43 | -5.82 | -9.18 | -7.87
[12] | -16.2 | -13.2 | -18.2 | -14 | -17.6
[13] | 0.99 | -4.51 | 0.53 | -7.41 | -4.2
[27] | -8.83 | -11.2 | -7.88 | -10.2 | -11.3

Conditions | drug sensitivity score
[14] | 0
[15] | 0
[16] | 0
[17] | 0
[18] | 0
[19] | 0
[20] | 0
[21] | 0
[22] | 0
[23] | 0
[24] | 0
[25] | 0
[26] | 0
[28] | 0

CN(C)CCOc1ccc(/C(=C(/CCCl)c2ccccc2)c2ccccc2)cc1 [Toremifene] (max concentration tested 10000 nM)
percent inhibition of viability [%]
Conditions | 1 nM | 10 nM | 100 nM | 1000 nM | 10000 nM
[1] | -5.3 | -17.6 | -3 | -8.46 | 64.3
[2] | -5.23 | 2.7 | -3.67 | 5.54 | 33
[3] | -4.85 | -1.12 | 2.18 | 6.43 | 54.2
[4] | -7.33 | 4.52 | -9.46 | 6.72 | 42
[5] | 13 | 30.5 | -2.4 | 28.2 | 29
[6] | 7.08 | 8.77 | -8.23 | 8.2 | 32.7
[7] | 1.82 | 1.64 | 5.42 | 24.2 | 53.5
[8] | -0.16 | 2.16 | -3.63 | 1.2 | 10.6
[9] | -2.58 | -5.78 | 0.52 | 5.83 | 23.4
[10] | 1.32 | -4.28 | -2.7 | -0.4 | 25.6
[11] | -4.96 | -0.07 | -1.79 | 3.55 | 49
[12] | -10.2 | -1.02 | 4.14 | 7.87 | 82.2
[13] | 8.55 | 1.95 | 5.19 | 8.64 | 60.7
[27] | -7.54 | -7.98 | -6.66 | -5.37 | 22.4

Conditions | drug sensitivity score
[14] | 2.96
[15] | 2.42
[16] | 3.98
[17] | 3.24
[18] | 6.85
[19] | 2.74
[20] | 5.52
[21] | 0.01
[22] | 1.64
[23] | 0.96
[24] | 3.11
[25] | 5.83
[26] | 4.76
[28] | 0.54
